Source: patent EP0200024B1, “3-Cyano-pyridines, process for their preparation and their pharmaceutical use” (ARZNEIMITTELWERK DRESDEN GmbH, priority 1985, dated 1986)
Like-named read-outs stand apart in the source and are kept apart here.

Experiments:
Langendorff-Herz = assay: Langendorff heart in vitro (isolated perfused, freely beating heart; inotropy, chronotropy, coronary flow); parameters: species or system Meerschweinchen; activation: dose or concentration left out as unconfirmed; details: for EC30: molarity of solution, 0,1 ml bolus into aortic stump, giving 30 % increase of inotropy, read-out: Erhöhung der Inotropie um 30 % bei Applikation von je 0,1 ml einer ... molaren Lösung; for EC100: molarity of solution, 0,1 ml bolus, giving 100 % increase of coronary flow, read-out: Erhöhung des Koronardurchflusses um 100 % bei Applikation von je 0,1 ml einer ... molaren Lösung; for positiv chronotrope Wirkung / positiv inotrope Wirkung: result in words; for activation at 10000 µM / activation: 0,1 ml of a 10⁻² molar stock solution into the aorta; for activation at 10000 µM: read-out: Erhöhung der Inotropie; for activation: read-out: Erhöhung des Koronardurchflusses
Experimental: Für die Versuche wurden männliche Meerschweinchen mit einer, Körpermasse von 300-350 g eingesetzt. An isolierten, mit carbogenbegaster Tyrodelösung von 37 °C durchströmten, frei schlagenden Herzen, wurden unter konstantem Druck die Kontraktionskraft (Inotropie), die Frequenz (Chronotropie) und der Koronardurchfluß unter dem Einfluß der 3-Cyan-2-(heteroalkyl-1-hetero)-5-(pyrid-4-yl)-pyridine der Formel I untersucht. Dazu wurden jeweils 0,1 ml der entsprechend molaren Substanzlösungen als Bolus direkt in den Aortenstumpf appliziert. Die 3-Cyan-2-(heteraalkyl-1-hetera)-5-(pyrid-4-yl)-pyridine zeigten eine teilweise starke und konzentrationsabhängige positiv inotrope und koronardilatatorische Wirkung. Die positiv chronotrope Wirkung war deutlich geringer, ausgeprägt. Beispielsweise zeigen die Verbindungen der Beispiele 1.2, 1.6, 1.7 und 1.8 eine Erhöhung der Inotropie um 30 % bei Applikation von je 0,1 ml einer 3,0 · 10⁻³, 2,2 · 10⁻², 2,0 · 10⁻⁴ bzw. 1,0 · 10⁻³ molaren Lösung und eine Erhöhung des Koronardurchflusses um 100 % bei Applikation von je 0,1 ml einer 6,0 · 10⁻³, 6,5 · 10⁻², 1,1 · 10⁻² bzw. 1,3 · 10⁻² molaren Lösung. Die Verbindungen der Beispiele 2.2, 2.3 und 2.4 weisen bei Applikation von je 0,1 ml einer 10⁻² molaren Stammlösung in die Aorta eine Erhöhung der Inotropie um 51 %, 38 % und 31 % sowie eine Erhöhung des Koronardurchflusses um 59 %, 99 % bzw. 88 % auf.

[1] = test system: Samenleiter von Meerschweinchen; assay: Noradrenaline antagonism in vitro (noradrenaline contraction of isolated vas deferens); details: Cavia porcellus; compound given 1 min before submaximal noradrenaline concentration; read-out: ED₅₀-Werte (Hemmung der Noradrenalinkontraktion)
Experimental: Die in Warmblüterphosphattyrode präparierten Samenleiter von Meerschweinchen (ca. 400 g Körpermasse) wurden 60 Min. im Organbad adaptiert. Anschließend wurden die Kontraktionen unter Gabe von Noradrenalin isotonisch registriert. Die 3-Cyan-2-(heteroalkyl-1-hetero)-pyridine der Formel I wurden 1 Min vor den jeweils submaximal reagierenden Noradrenalinkonzentrationen in das Organbad appliziert. […] Für die Verbindungen von Beispiel 1.2, 1.6, 1.7 und 1.8 ergaben sich beispielsweise ED₅₀-Werte von 2,2 · 10⁻⁵, 1,6 · 10⁻⁴, 2,5 · 10⁻⁴ sowie 1,3 · 10⁻⁴ mol/l.

Meerschweinchen = assay: Inhalative histamine bronchospasm, oral administration; type: in vivo; details: Cavia porcellus, 1 h, 60 min before inhaled 0,1 % histamine, 10 animals per dose, read-out: ED₅₀-Werte (Schutz vor Histamin-Bronchialkonstriktionen)
Experimental: Eine, in einem Ultraschallverdampfer vernebelte 0,1 %ige Histaminlösung induziert an männlichen Meerschweinchen (Körpermasse 200-300 g) innerhalb von 2 bis 3 Min. typische Bronchialkonstriktionen. Durch orale Verabreichung geeigneter Dosen der 3-Cyan-2-(heteroalkyl-1-hetero)-pyridine der Formel I 60 Min. vor der inhalativen Histamingabe wurden die Tiere innerhalb einer festgelegten Expositionszeit vor den durch Histamin verursachten Bronchialkonstriktionen geschützt. Für die Derivate von Beispiel 1.2, 1.6, 1.7 und 1.8 ergeben sich z.B. aus je 10 Tieren pro Dosis ED₅₀-Werte von 4,3 · 10⁻⁴, 6,0 · 10⁻⁴, 3,3 · 10⁻⁴ sowie 2,5 · 10⁻⁴ mol/kg, was auf deutliche bronchodilatatorische bzw. antiallergische Wirkungen hinweist.

[2] = test system: Isolierter, spontanaktiver Vorhof des Meerschweinchens; assay: Isolated, spontaneously active atrium (inotropy and frequency); parameters: species or system Meerschweinchen; details: for chronotrope Wirkung / positiv inotrope Wirkung: result in words
Experimental: Für die Versuche wurden männliche Meerschweinchen mit einer Körpermasse von 400-500 g verwendet. Am isolierten, spontanaktiven Vorhof erfolgte nach einer 60 Min. währenden Adaptationszeit der Organpräparate in 32 °C temperierter carbogen-durchperlter Tyrodelösung die Untersuchung der Beeinflussung von Inotropie und Frequenz unter Einwirkung der 3-Cyan-2-(heteroalkyl-1-hetero)-pyridine der Formel I. Eine Reihe von Verbindungen zeigte eine starke und dosisabhängige positiv inotrope Wirkung. Bei Verwendung einer Tyrodelösung nach A.A. Alousi et al. [Circ. Res. 45, 666 (1979)] zeigen beispielsweise die Verbindungen von Beispiel 1.2, 1.7, 1.27, 3.3, 3.4, 3.5, 4.1 bzw. 4.3 eine 30%ige Steigerung der Inotropie bei Konzentrationen von 5,6 · 10⁻⁵, 5,4 · 10⁻⁶, 5,0 · 10⁻⁵, 5,8 · 10⁻⁵, 9,1 · 10⁻⁵, 1,6 · 10⁻⁴, 3,5 · 10⁻⁵ und 5,4 · 10⁻⁵ mol/l. Die Verbindung von Beispiel 1.27 zeigt bei einer Konzentration von 5 · 10⁻⁵ mol/l eine Abnahme der Frequenz um 15 %. Die Verbindung von Beispiel 1.8 zeigt bei Verwendung einer Tyrodelösung mit der Zusammensetzung (mmol/l): NaCl 136,9; KCl 2,7; CaCl₂ 1,8; MgCl₂ 1,0; NaHCO₃ 11,9; NaH₂PO₄ 0,4; Glucose 16,5 eine 30%ige Steigerung der Inotropie bei einer Konzentration von 1,2 · 10⁻⁴ mol/l.

Narkotisierter Hund = assay: Anaesthetised dog i.v. (left ventricular pressure dp/dtmax, arterial pressure); type: in vivo, Bastardhunden; details: for ED10 / ED50: Canis lupus familiaris, iv; for ED10: read-out: 10%ige Senkung des diastolischen Blutdruckes bei einer Dosis von; for ED50: read-out: 50%ige Steigerung des Kontraktilitätsparameters dp/dtmax bei einer Dosis von; for Steigerungen des Kontraktilitätsparameters dp/dtmax: result in words
Source text: Die Untersuchungen wurden an Bastardhunden in Chloralose-Urethan-Narkose bei Prämedikation mit Morphinhydrochlorid unter spontaner Atmung durchgeführt. . Der linksventrikuläre Druck wurde mittels Tipmanometer und der arterielle Druck wurde über Herzkatheter via A. brachialis gemessen [vgl. K. Femmer et al., Pharmazie 30 642 (1975)]. Unter dem Einfluß der 3-Cyan-2-(heteroalkyl-1-hetero)-pyridine der Formel I wurden eine dosisabhängige beträchtliche. Steigerung der Kontraktionskraft des Herzens sowie teilweise eine signifikante Senkung des peripheren Gesamtwiderstandes beobachtet. So zeigen beispielsweise die Verbindungen von Beispiel 3.2, 4.1, 4.3 und 4.5 eine 50%ige Steigerung des Kontraktilitätsparameters dp/dtmax bei einer Dosis von 6,1 · 10⁻⁶, 1,4 · 10⁻⁶, 2,5 · 10⁻⁶ bzw. 2.0 · 10⁻⁶ mol/kg sowie eine 10%ige Senkung des diastolischen Blutdruckes als relevantes Maß einer Abnahme des peripheren Gesamtwiderstandes bei einer Dosis von 2,1 · 10⁻⁶, 1,6 · 10⁻⁶,1,6 · 10⁻⁶ bzw. 1,2 · 10⁻⁶ mol/kg. Die Verbindung von Beispiel 2.1 zeigt bei einer Dosis von 5 mg/kg eine Steigerung von dp/dtmax um 126 % Für die Verbindung von Beispiel 2.1 wurde bei einer Dosis von 5 mg/kg eine Senkung des diastolischen Blutdruckes um 37 % gefunden.

[3] = Tyrode solution according to A.A. Alousi et al., 32 °C, read-out: 30%ige Steigerung der Inotropie bei Konzentrationen von

SMILES: N#Cc1cc(-c2ccncc2)cnc1N(CCO)CCO [Beispiel 1.6, 2-[Bis-(2-hydroxy-ethyl)-amino]-3-cyan-5-(pyrid-4-yl)-pyridin]
- EC30 (Langendorff-Herz): 22000 µM
- EC100 (Langendorff-Herz): 65000 µM
- IC50 [1]: 160 µM
- ED50 (Meerschweinchen): 600 µmol/kg

SMILES: N#Cc1cc(-c2ccncc2)cnc1NCCCO [Beispiel 1.8, 3-Cyan-2-(3-hydroxy-propylamino)-5-(pyrid-4-yl)-pyridin]
- EC30 ([2]; Tyrode solution (mmol/l): NaCl 136,9, KCl 2,7, CaCl₂ 1,8, MgCl₂ 1,0, NaHCO₃ 11,9, NaH₂PO₄ 0,4, Glucose 16,5, read-out: 30%ige Steigerung der Inotropie bei einer Konzentration von): 120 µM
- chronotrope Wirkung [2]: relative geringer positiv chronotroper Aktivität
- positiv inotrope Wirkung [2]: ausgeprägte und dosisabhängige positiv inotrope Wirkung
- EC30 (Langendorff-Herz): 1000 µM
- EC100 (Langendorff-Herz): 13000 µM
- positiv chronotrope Wirkung (Langendorff-Herz): relative geringer positiv chronotroper Aktivität
- positiv inotrope Wirkung (Langendorff-Herz): ausgeprägte und dosisabhängige positiv inotrope Wirkung
- IC50 [1]: 130 µM
- ED50 (Meerschweinchen): 250 µmol/kg

SMILES: CC(O)COc1ncc(-c2ccncc2)cc1C#N (stereo not shown) [Beispiel 2.4, 3-Cyan-2-(2-hydroxy-propoxy)-5-(pyrid-4-yl)-pyridin]
- activation at 10000 µM (Langendorff-Herz): 31%
- activation (Langendorff-Herz): 88%

SMILES: N#Cc1cc(-c2ccncc2)cnc1N1CCN(C(=O)c2ccco2)CC1 [Beispiel 1.27, 3-Cyan-2-[4-(furan-2-yl-carbonyl)-piperazino]-5-(pyrid-4-yl)-pyridin]
- inhibition at 50 µM ([2]; Cavia porcellus, at a concentration of 5 · 10⁻⁵ mol/l, read-out: Abnahme der Frequenz): 15%
- EC30 [2, 3]: 50 µM
- chronotrope Wirkung [2]: negativ chronotroper Wirkung
- positiv inotrope Wirkung [2]: gute positiv inotrope Wirkung

SMILES: Cc1nc(NCC(C)O)c(C#N)cc1-c1ccncc1 (stereo not shown) [Beispiel 3.5, 3-Cyan-2-(2-hydroxy-propylamino)-6-methyl-5-(pyrid-4-yl)-pyridin]
- EC30 [2, 3]: 160 µM

SMILES: Cc1nc(N2CCOCC2)c(C#N)cc1-c1ccncc1 [Beispiel 3.2, 3-Cyan-6-methyl-2-morpholino-5-(pyrid-4-yl)-pyridin]
- ED10 (Narkotisierter Hund): 2.1 µmol/kg
- ED50 (Narkotisierter Hund): 6.1 µmol/kg
- Steigerungen des Kontraktilitätsparameters dp/dtmax (Narkotisierter Hund): dosisabhängige beträchtliche Steigerungen

SMILES: CC(=O)OCCOc1ncc(-c2ccncc2)cc1C#N [Beispiel 4.3, 2-(2-Acetoxy-ethoxy)-3-cyan-5-(pyrid-4-yl)-pyridin]
- EC30 [2, 3]: 54 µM
- positiv inotrope Wirkung [2]: gute und dosisabhängige positiv inotrope Wirkung
- ED10 (Narkotisierter Hund): 1.6 µmol/kg
- ED50 (Narkotisierter Hund): 2.5 µmol/kg
- Steigerungen des Kontraktilitätsparameters dp/dtmax (Narkotisierter Hund): dosisabhängige beträchtliche Steigerungen

SMILES: N#Cc1cc(-c2ccncc2)cnc1OCCO [Beispiel 2.2, 3-Cyan-2-(2-hydroxy-ethoxy-)-5-(pyrid-4-yl)-pyridin]
- chronotrope Wirkung [2]: relative geringer positiv chronotroper Aktivität
- positiv inotrope Wirkung [2]: ausgeprägte und dosisabhängige positiv inotrope Wirkung
- activation at 10000 µM (Langendorff-Herz): 51%
- activation (Langendorff-Herz): 59%
- positiv chronotrope Wirkung (Langendorff-Herz): relative geringer positiv chronotroper Aktivität
- positiv inotrope Wirkung (Langendorff-Herz): ausgeprägte und dosisabhängige positiv inotrope Wirkung

SMILES: Cc1nc(NCCCO)c(C#N)cc1-c1ccncc1 [Beispiel 3.4, 3-Cyan-2-(3-hydroxy-propylamino)-6-methyl-5-(pyrid-4-yl)-pyridin]
- EC30 [2, 3]: 91 µM
- positiv inotrope Wirkung [2]: gute und dosisabhängige positiv inotrope Wirkung

SMILES: COCCOc1ncc(-c2ccncc2)cc1C#N [Beispiel 2.1, 3-Cyan-2-(2-methoxy-ethoxy)-5-(pyrid-4-yl)-pyridin]
- Senkung des diastolischen Blutdruckes (Narkotisierter Hund; dose 5 mg/kg): 37%
- Steigerung von dp/dtmax (Narkotisierter Hund; dose 5 mg/kg): 126%

SMILES: CCC(=O)OCCNc1ncc(-c2ccncc2)cc1C#N [Beispiel 4.5, 3-Cyan-2-(2-propionyloxy-ethylamino)-5-(pyrid-4-yl)-pyridin]
- ED10 (Narkotisierter Hund): 1.2 µmol/kg
- ED50 (Narkotisierter Hund): 2 µmol/kg
- Steigerungen des Kontraktilitätsparameters dp/dtmax (Narkotisierter Hund): dosisabhängige beträchtliche Steigerungen

SMILES: Cc1nc(N2CCOCC2)c(C#N)cc1-c1ccccc1 [3-Cyan-6-methyl-2-morpholino-5-phenyl-pyridin]
- Steigerungen des Kontraktilitätsparameters dp/dtmax (Narkotisierter Hund): dosisabhängige beträchtliche Steigerungen

SMILES: CC(=O)OCCNc1ncc(-c2ccncc2)cc1C#N [Beispiel 4.1, 2-(2-Acetoxy-ethylamino)-3-cyan-5-(pyrid-4-yl)-pyridin]
- EC30 [2, 3]: 35 µM
- positiv inotrope Wirkung [2]: gute und dosisabhängige positiv inotrope Wirkung
- ED10 (Narkotisierter Hund): 1.6 µmol/kg
- ED50 (Narkotisierter Hund): 1.4 µmol/kg
- Steigerungen des Kontraktilitätsparameters dp/dtmax (Narkotisierter Hund): dosisabhängige beträchtliche Steigerungen

SMILES: COc1ccc(-c2cc(C#N)c(N3CCOCC3)nc2C)cc1OC [3-Cyan-5-(3,4-dimethoxy-phenyl)-6-methyl-2-morpholino-pyridin]
- Steigerungen des Kontraktilitätsparameters dp/dtmax (Narkotisierter Hund): dosisabhängige beträchtliche Steigerungen

SMILES: Cc1nc(NCCO)c(C#N)cc1-c1ccncc1 [Beispiel 3.3, 3-Cyan-2-(2-hydroxy-ethylamino)-6-methyl-5-(pyrid-4-yl)-pyridin]
- EC30 [2, 3]: 58 µM
- positiv inotrope Wirkung [2]: gute und dosisabhängige positiv inotrope Wirkung

SMILES: N#Cc1cc(-c2ccncc2)cnc1OCCCO [Beispiel 2.3, 3-Cyan-2-(3-hydroxy-propoxy)-5-(pyrid-4-yl)-pyridin]
- activation at 10000 µM (Langendorff-Herz): 38%
- activation (Langendorff-Herz): 99%
